Measured values taken from US10047105B2, “Gyrase inhibitors” (Merck Sharp & Dohme Corp., priority 2009, dated 2018).
Converted amounts (≈) assume the structure as drawn.

Assays:
Format in all cases: cell-based
[1] = tested on: S. pneumoniae ATCC 51916; test: MIC, S. pneumoniae; conditions: S. pneumoniae (Spn52); in µg/mL
[2] = tested on: S. aureus ATCC 13709; test: MIC, antibacterial potency, S. aureus; conditions: S. aureus (SA); in µg/mL
[3] = tested on: E. coli 8 ATCC 25922; test: MIC, E. coli 8 (wt); conditions: E. coli 8 (EC8)

Structure (SMILES) | MIC Spn52 [1] | MIC, SA [2] | MIC EC8 [3]
CCc1[nH]c2nc(Sc3ccc4c(c3)c(=O)c(C#N)cn4CCCN(C)C)nc(N3CC[C@@H](N)C3)c2c1Cl [700,929] | 64 | 16 | 32 µg/mL (≈ 58.1 µM)
CCc1[nH]c2nc(Sc3cc(C#N)c4c(c3)c(=O)ccn4C)nc(N3CC[C@@H](N)C3)c2c1Cl [701,088] | 1 | 1 | 32 µg/mL (≈ 66.7 µM)
CCc1[nH]c2nc(Sc3ccc4[nH]c(C(F)(F)F)cc(=O)c4c3)nc(N3CC[C@@H](N)C3)c2c1Cl [700,918] | 8 | 2 | > 64 µg/mL
CCc1[nH]c2nc(Sc3ccc4nc(C)nc(N5CC(CN)C5)c4c3)nc(N3CC[C@@H](N)C3)c2c1Cl [700,914] | >64 | 64 | 32 µg/mL (≈ 61.1 µM)
CCc1[nH]c2nc(Sc3cnc4c(=N)n(CCCN5CCC(N)C5)c(C)nc4c3)nc(N3CC[C@@H](N)C3)c2c1Cl (stereo partly drawn) [700,943] | 32 | 32 | 64 µg/mL (≈ 110 µM)
CC(=O)c1nc(Oc2cccc(C#N)c2)nc2[nH]c(C(C)O)c(Cl)c12 (stereo not drawn) [700,947] | 64 | >64 | > 64 µg/mL
CCc1[nH]c2nc(Sc3cnc4cccnc4c3)nc(N3CCC(NCCN)C3)c2c1Cl (stereo not drawn) [700,921] | 4 | 2 | > 64 µg/mL
NC1C2CN(c3nc(Sc4cnc5ccc[n+]([O-])c5c4)nc4[nH]c(CC(F)(F)F)c(Cl)c34)CC12 (stereo not drawn) [701,236] | >64 | >64 | > 64 µg/mL
CCc1[nH]c2nc(Sc3cnc4cccnc4c3)nc(N3CC[C@@H](N)C3)c2c1C [701,161] | 16 | 4 | 64 µg/mL (≈ 158 µM)
CCc1[nH]c2nc(Oc3cccc(C#N)c3)nc(C(C)N3CC4C(C3)C4(N)C(N)=O)c2c1Cl (stereo not drawn) [700,952] | 64 | 64 | > 64 µg/mL
CCc1[nH]c2nc(Sc3cnc4nccnc4c3)nc(N3CCC4(CC4N)C3)c2c1Cl (stereo not drawn) [700,986] | 2 | 1 | 64 µg/mL (≈ 141 µM)
CCc1[nH]c2nc(Sc3cnc4[nH][nH]c(=O)c4c3)nc(N3CC[C@@H](N)C3)c2c1Cl [701,094] | >64 | >64 | > 64 µg/mL
CCc1[nH]c2nc(Sc3cnc4ccc[n+]([O-])c4c3)nc(N3CC4CCNC4C3)c2c1Cl (stereo not drawn) [701,026] | 1 | <=0.5 | 8 µg/mL (≈ 17.1 µM)

Next, values leading:

MIC Spn52 [1] | MIC, SA [2] | MIC EC8 [3] | Structure (SMILES)
>64 | >64 | > 64 µg/mL | CCc1[nH]c2nc(Oc3cncnc3)nc(N3CCC(N)C3)c2c1Cl (stereo not drawn) [700,910]
1 | 1 | > 64 µg/mL | CCc1[nH]c2nc(Oc3ccc4nccnc4c3)nc(C(C)=O)c2c1Cl [700,961]
1 | <=0.5 | > 64 µg/mL | CCc1[nH]c2nc(Oc3cnc(OC)c(OC)c3)nc(Oc3cnc(OC)c(OC)c3)c2c1Br [701,097]
8 | 8 | > 64 µg/mL | CCc1[nH]c2nc(Oc3cnc4c(c3)ncn4C)nc(N3CC[C@@H](NC(C)=O)C3)c2c1Br [701,032]
<=0.5 | <=0.5 | > 64 µg/mL | CCc1[nH]c2nc(Oc3ccc4nccnc4c3)nc(Oc3ccc4nccnc4c3)c2c1Br [700,938]
>64 | >64 | > 64 µg/mL | CCc1[nH]c2nc(Oc3cc4ncn(C)c4[n+]([O-])c3)nc(Oc3cnc4c(c3)ncn4C)c2c1Cl [701,067]
4 | 16 | 64 µg/mL (≈ 121 µM) | CCc1[nH]c2nc(Sc3cnc4c(=N)n(CCN(C)C)c(C)nc4c3)nc(N3CC[C@@H](N)C3)c2c1Cl [700,924]
2 | 1 | > 64 µg/mL | CCc1[nH]c2nc(Oc3cnc(O)nc3)nc(Oc3cnc(O)nc3)c2c1Br [701,105]
2 | 1 | > 32 µg/mL | CCc1[nH]c2nc(Oc3cncnc3)nc(N3CC4C(N)C4C3)c2c1Cl (stereo not drawn) [700,911]
16 | 8 | > 32 µg/mL | CCc1[nH]c2nc(Oc3cncc(OC)c3)nc(N3CC4C(N)C4C3)c2c1Cl (stereo not drawn) [701,041]
16 | 8 | > 64 µg/mL | CCc1[nH]c2nc(Sc3cnc4ccc[n+]([O-])c4c3)nc(N(C)CCNC)c2c1Cl [701,037]
>64 | >64 | > 64 µg/mL | CCc1[nH]c2nc(Oc3ccc4nccnc4c3)nc(Oc3ccc(C#N)cc3Cl)c2c1Br [701,287]
<=0.5 | <=0.5 | > 64 µg/mL | CCc1[nH]c2nc(Oc3cncc(C#N)c3)nc(Oc3cnc(N)nc3)c2c1Br [701,255]
16 | 8 | > 64 µg/mL | CCc1[nH]c2nc(Oc3cncnc3)nc(N3CCCC3CO)c2c1Cl (stereo not drawn) [700,908]
